{"source": "paper PMC6982127", "about": "“GTP Binding Is Necessary for the Activation of a Toxic Mutant Isoform of the Essential GTPase ObgE” (International Journal of Molecular Sciences, 2019)", "assay_in_all_cases": "isothermal titration calorimetry", "type_in_all_cases": "binding", "key": {"[1]": {"biological_target": "T1, ObgE (Escherichia coli, UniProt P42641, H234R)", "T1 construct": "full-length ObgE, N-terminal His6 tag (pET28a-obgE), expressed in E. coli BL21(DE3) pLysS, Ni-NTA and size exclusion, made nucleotide-free by alkaline phosphatase", "T1 sequence (P42641 whole entry H234R)": "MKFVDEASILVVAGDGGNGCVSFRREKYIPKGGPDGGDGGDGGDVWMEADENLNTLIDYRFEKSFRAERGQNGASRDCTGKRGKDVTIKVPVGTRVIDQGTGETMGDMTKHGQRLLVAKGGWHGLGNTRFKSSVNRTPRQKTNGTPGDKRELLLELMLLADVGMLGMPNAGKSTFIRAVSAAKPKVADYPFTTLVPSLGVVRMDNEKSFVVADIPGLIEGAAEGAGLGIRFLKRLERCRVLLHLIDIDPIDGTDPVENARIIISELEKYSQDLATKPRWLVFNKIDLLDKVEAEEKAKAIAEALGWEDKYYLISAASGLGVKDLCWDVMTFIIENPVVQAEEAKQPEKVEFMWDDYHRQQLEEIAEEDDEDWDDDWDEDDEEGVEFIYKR", "excerpt": "(§1) isothermal titration calorimetry on ObgE"}, "[2]": {"biological_target": "T2, ObgE (Escherichia coli, UniProt P42641, T174I)", "T2 construct": "full-length ObgE, N-terminal His6 tag (pET28a-obgE), expressed in E. coli BL21(DE3) pLysS, Ni-NTA and size exclusion, made nucleotide-free by alkaline phosphatase", "T2 sequence (P42641 whole entry T174I)": "as the sequence (P42641 whole entry H234R) above, with T174I, R234H counted along it", "excerpt": "as §1"}, "[3]": {"biological_target": "T3, ObgE (Escherichia coli, UniProt P42641, DEL153-156)", "T3 construct": "full-length ObgE, N-terminal His6 tag (pET28a-obgE), expressed in E. coli BL21(DE3) pLysS, Ni-NTA and size exclusion, made nucleotide-free by alkaline phosphatase", "T3 sequence (P42641 with tags, fused parts or gaps DEL153-156)": "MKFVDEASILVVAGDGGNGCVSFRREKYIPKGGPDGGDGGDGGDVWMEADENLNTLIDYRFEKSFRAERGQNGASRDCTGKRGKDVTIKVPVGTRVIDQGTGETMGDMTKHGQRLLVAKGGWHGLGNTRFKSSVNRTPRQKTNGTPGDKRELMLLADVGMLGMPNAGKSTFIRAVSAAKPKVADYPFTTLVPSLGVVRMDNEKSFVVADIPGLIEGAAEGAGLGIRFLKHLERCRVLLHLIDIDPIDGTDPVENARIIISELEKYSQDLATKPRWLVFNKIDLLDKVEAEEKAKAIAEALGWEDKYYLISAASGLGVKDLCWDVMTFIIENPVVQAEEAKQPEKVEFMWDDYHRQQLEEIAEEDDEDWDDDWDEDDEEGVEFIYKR", "excerpt": "as §1"}, "[4]": {"biological_target": "T4, ObgE (Escherichia coli, UniProt P42641, E265K)", "T4 construct": "full-length ObgE, N-terminal His6 tag (pET28a-obgE), expressed in E. coli BL21(DE3) pLysS, Ni-NTA and size exclusion, made nucleotide-free by alkaline phosphatase", "T4 sequence (P42641 whole entry E265K)": "as the sequence (P42641 whole entry H234R) above, with R234H, E265K counted along it", "excerpt": "as §1"}, "[5]": {"details": "read-out: Equilibrium Dissociation Constants / KD(GDP)"}, "[6]": {"details": "read-out: Equilibrium Dissociation Constants / KD(GTPγS)"}, "[7]": {"details": "read-out: Equilibrium Dissociation Constants / KD(ppGpp)"}}, "note": "Where two headings read alike, the source gives them in different places.", "data": [{"smiles": "Nc1nc2c(ncn2[C@@H]2O[C@H](COP(=O)(O)OP(=O)(O)O)[C@@H](O)[C@H]2O)c(=O)[nH]1", "note": "[GDP]", "values": [{"measurement": "Kd", "setting": "[1]; [5]", "result": "430 ± 50", "unit": "nM"}, {"measurement": "Kd", "setting": "[2]; [5]", "result": "115 ± 2", "unit": "µM"}, {"measurement": "Kd", "setting": "[3]; [5]", "result": "600 ± 50", "unit": "nM"}, {"measurement": "Kd", "setting": "[4]; [5]", "result": "250 ± 30", "unit": "nM"}]}, {"smiles": "Nc1nc2c(ncn2[C@@H]2O[C@H](COP(=O)(O)OP(=O)(O)OP(O)(O)=S)[C@@H](O)[C@H]2O)c(=O)[nH]1", "note": "[GTPγS]", "values": [{"measurement": "Kd", "setting": "[1]; [6]", "result": "3700 ± 500", "unit": "nM"}, {"measurement": "Kd", "setting": "[2]; [6]", "result": "160 ± 11", "unit": "µM"}, {"measurement": "Kd", "setting": "[3]; [6]", "result": "3400 ± 500", "unit": "nM"}, {"measurement": "Kd", "setting": "[4]; [6]", "result": "5700 ± 800", "unit": "nM"}]}, {"smiles": "Nc1nc2c(ncn2[C@@H]2O[C@H](COP(=O)(O)OP(=O)(O)O)[C@@H](OP(=O)(O)OP(=O)(O)O)[C@H]2O)c(=O)[nH]1", "note": "[ppGpp]", "values": [{"measurement": "Kd", "setting": "[1]; [7]", "result": "600 ± 60", "unit": "nM"}, {"measurement": "Kd", "setting": "[2]; [7]", "result": "81 ± 3", "unit": "µM"}, {"measurement": "Kd", "setting": "[3]; [7]", "result": "640 ± 60", "unit": "nM"}, {"measurement": "Kd", "setting": "[4]; [7]", "result": "310 ± 30", "unit": "nM"}]}]}
